The target of data set [1] is T1, Falcipain 2 (Plasmodium falciparum) (UniProt Q9N6S8).
T1 sequence (whole entry): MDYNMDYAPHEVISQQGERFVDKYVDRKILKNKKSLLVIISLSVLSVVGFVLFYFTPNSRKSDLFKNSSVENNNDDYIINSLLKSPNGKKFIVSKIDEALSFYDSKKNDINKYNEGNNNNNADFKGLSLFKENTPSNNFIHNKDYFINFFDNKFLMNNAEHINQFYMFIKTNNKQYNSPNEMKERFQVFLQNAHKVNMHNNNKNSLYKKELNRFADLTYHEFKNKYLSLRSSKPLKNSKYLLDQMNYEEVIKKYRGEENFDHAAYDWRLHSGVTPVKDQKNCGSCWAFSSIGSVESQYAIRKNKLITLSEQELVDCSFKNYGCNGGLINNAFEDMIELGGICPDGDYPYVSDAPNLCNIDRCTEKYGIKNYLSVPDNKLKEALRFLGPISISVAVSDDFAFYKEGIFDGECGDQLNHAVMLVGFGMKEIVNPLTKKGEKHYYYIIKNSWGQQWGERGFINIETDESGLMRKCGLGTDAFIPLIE
In words: Inhibition of N-terminal 6His-tagged recombinant Plasmodium falciparum FP2 expressed in Escherichia coli M15 using Z-Phe-Arg-AMC as substrate at 5 uM measured after 30 mins by microplate reader analysis relative to control.

The nature of data set [2]: Toxicity in mouse assessed as latency to fall off the rotating rod by measuring neuromuscular coordination index at 200 mg/kg by rotarod apparatus (reference value: 12.45 +/- 1.48 ). The class given is organism-based. The note with it: in vivo. In general terms: Falling from the rotarod earlier than controls is read as motor impairment.
The nature of data set [3]: Toxicity in mouse assessed as cell death in kidney at 100 to 200 mg/kg measured after 7 days by hematoxylin and eosin staining based analysis. The class given is organism-based. The conditions noted are these: in vivo, 168 h, dose 100-200 mg/kg, time 7 day.
The nature of data set [4]: Toxicity in mouse assessed as cell apoptosis in liver at 100 to 200 mg/kg measured after 7 days by hematoxylin and eosin staining based analysis. The class given is organism-based. The conditions noted are these: in vivo, 168 h, dose 100-200 mg/kg, time 7 day.

Molecules are shown by their SMILES.

For orientation: inhibition means the percentage by which the read-out fell short of the control.

As for `O=C(Cn1cc(CN2CCN(c3ccnc4cc(Cl)ccc34)CC2)nn1)Nc1cccc([N+](=O)[O-])c1`, the inhibition in data set [1] turned out to be 27.3%. In addition, the Activity_index in data set [2] was 10.75. In addition, the Activity result in data set [3] and in data set [4] was “Non-Toxic” throughout.

(Values after ChEMBL document CHEMBL5523667, “Blood-stage antimalarial activity, favourable metabolic stability and in vivo toxicity of novel piperazine linked 7-chloroquinoline-triazole conjugates” (Eur J Med Chem, 2024).)
